Assay results as given in patent publication US5567692A, “9-[(substituted glycyl) amido)]-6-demethyl-6-deoxytetracyclines” (priority 1995, dated 1996).
Where a name gives a salt, the structure may show the parent alone.

What was measured:
Streptococcus agalactiae = experiment: MIC range, recent clinical and veterinary isolates; format: cell-based; details: 18 h, read-out: MIC Range
[1] = tested on: Staphylococcus aureus, (methicillin-resistant); experiment: MIC range, recent clinical and veterinary isolates; format: cell-based; details: 18 h, [15] isolates
Moraxella catarrhalis = experiment: MIC range, recent clinical and veterinary isolates; format: cell-based; details: 18 h, [18] isolates, read-out: MIC Range
Proteus mirabilis = experiment: MIC range, recent clinical and veterinary isolates; format: cell-based; details: 18 h, read-out: MIC Range
the ribosome = experiment: Reversibility of binding: bacterial growth after washing of the organism; format: cell-based; details: bacterial growth resumes when the compound is removed by washing
Text: Therefore, the ability of 9-[(N,N-dimethylglycyl)amido]-6-demethyl-6-deoxytetracycline to inhibit bacterial growth appears to be a direct consequence of its ability to inhibit protein synthesis at the ribosome level.

Enterococcus faecium = experiment: MIC range, recent clinical and veterinary isolates; format: cell-based; details: 18 h, read-out: MIC Range
[2] = tested on: S. aureus UBMS 88-5 Tet M; experiment: microbe, parasite or virus in culture; format: cell-based; details: Staphylococcus aureus, UBMS885TETM, 18 h
E. coli BAJ9003 IMP MUT = experiment: microbe, parasite or virus in culture; format: cell-based; details: E. coli BAJ9003 IMP MUT
E. coli J3272 Tet D = experiment: microbe, parasite or virus in culture; format: cell-based; details: dihydrochloride
E. coli J2175 = experiment: MIC, agar dilution; format: cell-based
Shigella spp. = experiment: MIC range, recent clinical and veterinary isolates; format: cell-based; details: 18 h, [14] isolates
E. coli PRP1 Tet A = experiment: microbe, parasite or virus in culture; format: cell-based; details: dihydrochloride
Listeria monocytogenes = experiment: MIC range, recent clinical and veterinary isolates; format: cell-based; details: 18 h, [8] isolates
[3] = tested on: Pasturella multocida (Veterinary); experiment: MIC range, recent clinical and veterinary isolates; format: cell-based; details: 18 h, [17] isolates
S. aureus UBMS 88-4 = experiment: MIC, agar dilution; format: cell-based; details: Staphylococcus aureus, UBMS884, 18 h
[4] = tested on: Enterococcus spp, (Vancomycin-resistant); experiment: MIC range, recent clinical and veterinary isolates; format: cell-based; details: 18 h, [8] isolates
[5] = tested on: Escherichia coli UBMS 90-4 (Tet M); experiment: Acute lethal infection in mice, E. coli UBMS 90-4; details: in Mus musculus, iv, 168 h
Citrobacter diversus = experiment: MIC range, recent clinical and veterinary isolates; format: cell-based; details: Citrobacter koseri, 18 h; Citrobacter diversus, [10] isolates; read-out: MIC Range
Citrobacter freundii = experiment: MIC range, recent clinical and veterinary isolates; format: cell-based; details: 18 h, [10] isolates, read-out: MIC Range
[6] = tested on: X. maltophilia NEMC 87210; experiment: MIC, agar dilution; format: cell-based; details: X. maltophilia NEMC 87210; dihydrochloride
Bacteroides fragilis = experiment: MIC range, recent clinical and veterinary isolates; format: cell-based; details: 18 h, [11] isolates
Serratia marcescens = experiment: MIC range, recent clinical and veterinary isolates; format: cell-based; details: 18 h, [10] isolates, read-out: MIC Range
[7] = tested on: Staphylococcus aureus strain Smith (tetracycline sensitive); experiment: Acute lethal infection in mice, S. aureus Smith; format: in vivo; details: mice, S. aureus Smith (Sens), 7 day survival, dihydrochloride, 10080 min
Proteus vulgaris = experiment: MIC range, recent clinical and veterinary isolates; format: cell-based; details: 18 h, [18] isolates, read-out: MIC Range
[8] = tested on: Salmonella choleraesuis (Veterinary); experiment: MIC range, recent clinical and veterinary isolates; format: cell-based; details: Salmonella enterica, 18 h, [15] isolates
Neisseria gonorrhoeae = experiment: MIC range, recent clinical and veterinary isolates; format: cell-based; details: 18 h, [14] isolates
Clostridium difficile = experiment: MIC range, recent clinical and veterinary isolates; format: cell-based; details: Clostridioides difficile, 18 h; Clostridium difficile, [12] isolates; read-out: MIC Range
Klebsiella pneumoniae = experiment: MIC range, recent clinical and veterinary isolates; format: cell-based; details: 18 h, [10] isolates
[9] = tested on: Ps. aeruginosa ATCC 27853; experiment: MIC, agar dilution; format: cell-based; details: Ps. aeruginosa ATCC 27853; dihydrochloride
Escherichia coli = experiment: MIC range, recent clinical and veterinary isolates; format: cell-based; details: 18 h, read-out: MIC Range
[10] = tested on: Bacteroides fragilis group; experiment: MIC range, recent clinical and veterinary isolates; format: cell-based; details: Bacteroides fragilis, 18 h, read-out: MIC Range
S. aureus IVES 1983 = experiment: MIC, agar dilution; format: cell-based; details: S. aureus IVES 1983; dihydrochloride
Salmonella spp. = experiment: MIC range, recent clinical and veterinary isolates; format: cell-based; details: 18 h, [11] isolates
Clostridium perfringens = experiment: microbe, parasite or virus in culture; format: cell-based; details: 18 h, read-out: MIC Range
[11] = tested on: Staphylococcus Coagulase-negative, (methicillin-susceptible); experiment: MIC range, recent clinical and veterinary isolates; format: cell-based; details: 18 h, [14] isolates
S. aureus IVES 2943 = experiment: MIC, agar dilution; format: cell-based; details: S. aureus IVES 2943; dihydrochloride
Morganella morganii = experiment: MIC range, recent clinical and veterinary isolates; format: cell-based; details: 18 h, [16] isolates
E. faecalis ATCC 29212 = experiment: MIC, agar dilution; format: cell-based; details: E. faecalis ATCC 29212
[12] = tested on: S. aureus UBMS 90-1 Tet M; experiment: microbe, parasite or virus in culture; format: cell-based; details: S. aureus UBMS 90-1 Tet M; dihydrochloride
S. aureus UBMS 90-3 = experiment: MIC, agar dilution; format: cell-based; details: Staphylococcus aureus, UBMS903, 18 h
Enterococcus 12201 = experiment: MIC, agar dilution; format: cell-based; details: Enterococcus 12201
Streptococcus pyogenes = experiment: MIC range, recent clinical and veterinary isolates; format: cell-based; details: 18 h, read-out: MIC Range
S. aureus ATCC 29213 = experiment: MIC, agar dilution; format: cell-based; details: S. aureus ATCC 29213; dihydrochloride

CN(C)CC(=O)Nc1ccc2c(c1O)C(=O)C1=C(O)[C@]3(O)C(=O)C(C(N)=O)=C(O)[C@@H](N(C)C)C3CC1C2 (stereo partly drawn) [CC, [4S-(4alpha,12aalpha)]-4-(Dimethylamino)-9-[[(dimethylamino)acetyl]amino]-1,4,4a,5,5a,6,11,12a-octahydro-3,10,12,12a-tetrahydroxy-1,11-dioxo-2-naphthacenecarboxamide dihydrochloride]
MIC (Streptococcus agalactiae): 0.12 to 0.25 µg/mL
MIC [1]: 0.12 to 4 µg/mL
MIC (Moraxella catarrhalis): 0.06 to 0.12 µg/mL
MIC (Proteus mirabilis): 0.12 to 2 µg/mL
binding to its target (the ribosome), reversibility (the ribosome): binds reversibly
MIC (Enterococcus faecium): 0.06 to 0.5 µg/mL
MIC [2]: 0.03 µg/mL
MIC (E. coli BAJ9003 IMP MUT): no growth
MIC (E. coli J3272 Tet D): 0.03 µg/mL
MIC (E. coli J2175): 0.25 µg/mL
MIC (Shigella spp.): 0.12 to 0.5 µg/mL
MIC (E. coli PRP1 Tet A): 0.5 µg/mL
MIC (Listeria monocytogenes): 0.06 to 0.12 µg/mL
MIC [3]: 0.03 to 0.25 µg/mL
MIC (S. aureus UBMS 88-4): 0.03 µg/mL
MIC [4]: 0.03 to 0.12 µg/mL
ED50 [5]: 1.6 mg/kg
MIC (Citrobacter diversus): 0.25 to 1 µg/mL
MIC (Citrobacter freundii): 0.5 to 8 µg/mL
MIC [6]: 1 µg/mL
MIC (Bacteroides fragilis): 0.25 to 1 µg/mL
MIC (Serratia marcescens): 2 to 8 µg/mL
ED50 ([7]; Intraveneous): 0.46 mg/kg
ED50 ([7]; Oral): > 8 mg/kg
MIC (Proteus vulgaris): 0.06 to 1 µg/mL
MIC [8]: 0.5 to 8 µg/mL
MIC (Neisseria gonorrhoeae): 0.5 to 1 µg/mL
MIC (Clostridium difficile): 0.06 to 0.12 µg/mL
MIC (Klebsiella pneumoniae): 0.25 to 4 µg/mL
MIC [9]: 4 µg/mL
MIC (Escherichia coli): 0.25 to 4 µg/mL
MIC [10]: 0.12 to 2 µg/mL
MIC (S. aureus IVES 1983): 0.5 µg/mL
MIC (Salmonella spp.): 0.25 to 0.5 µg/mL
MIC (Clostridium perfringens): 0.03 to 2 µg/mL
MIC [11]: 0.06 to 4 µg/mL
MIC (S. aureus IVES 2943): 0.5 µg/mL
MIC (Morganella morganii): 0.5 to 1 µg/mL
MIC (E. faecalis ATCC 29212): 0.03 µg/mL
MIC [12]: 0.06 µg/mL
MIC (S. aureus UBMS 90-3): 0.03 µg/mL
MIC (Enterococcus 12201): 0.03 µg/mL
MIC (Streptococcus pyogenes): 0.06 to 0.12 µg/mL
MIC (S. aureus ATCC 29213): < 0.015 µg/mL
